Measured values from ChEMBL document CHEMBL4145445, “Design, synthesis and biological assessment of new thiazolylhydrazine derivatives as selective and reversible hMAO-A inhibitors” (Eur J Med Chem, 2018).

Columns and labels:
[1] = target: T1, Amine oxidase [flavin-containing] B (Homo sapiens, UniProt P27338); test: Inhibition of human MAO-B using tyramine hydrochloride as substrate after 30 mins by Amplex Red reagent based horseradish peroxidase enzyme-coupled fluorescence assay
T1 sequence (P27338 whole entry): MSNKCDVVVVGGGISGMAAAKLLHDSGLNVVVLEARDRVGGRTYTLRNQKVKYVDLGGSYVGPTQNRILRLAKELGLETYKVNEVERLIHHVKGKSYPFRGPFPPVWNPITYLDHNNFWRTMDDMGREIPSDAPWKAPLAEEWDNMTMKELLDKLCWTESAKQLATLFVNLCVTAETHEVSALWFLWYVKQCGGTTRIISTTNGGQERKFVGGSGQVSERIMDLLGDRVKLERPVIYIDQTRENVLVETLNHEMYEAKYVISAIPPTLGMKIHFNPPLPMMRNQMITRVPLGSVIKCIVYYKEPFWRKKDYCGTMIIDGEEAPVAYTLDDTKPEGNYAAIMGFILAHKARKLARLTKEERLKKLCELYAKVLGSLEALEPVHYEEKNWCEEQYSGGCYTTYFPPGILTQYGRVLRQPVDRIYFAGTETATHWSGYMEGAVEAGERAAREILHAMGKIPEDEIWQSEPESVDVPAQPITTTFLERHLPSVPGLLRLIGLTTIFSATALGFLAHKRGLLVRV

[2] = target: T2, Amine oxidase [flavin-containing] A (Homo sapiens, UniProt P21397); test: Inhibition of human MAO-A at 10^-4 to 10^-3 M using tyramine hydrochloride as substrate after 30 mins by Amplex Red reagent based horseradish peroxidase enzyme-coupled fluorescence assay relative to control; details: 0.5 h
T2 sequence (P21397 whole entry): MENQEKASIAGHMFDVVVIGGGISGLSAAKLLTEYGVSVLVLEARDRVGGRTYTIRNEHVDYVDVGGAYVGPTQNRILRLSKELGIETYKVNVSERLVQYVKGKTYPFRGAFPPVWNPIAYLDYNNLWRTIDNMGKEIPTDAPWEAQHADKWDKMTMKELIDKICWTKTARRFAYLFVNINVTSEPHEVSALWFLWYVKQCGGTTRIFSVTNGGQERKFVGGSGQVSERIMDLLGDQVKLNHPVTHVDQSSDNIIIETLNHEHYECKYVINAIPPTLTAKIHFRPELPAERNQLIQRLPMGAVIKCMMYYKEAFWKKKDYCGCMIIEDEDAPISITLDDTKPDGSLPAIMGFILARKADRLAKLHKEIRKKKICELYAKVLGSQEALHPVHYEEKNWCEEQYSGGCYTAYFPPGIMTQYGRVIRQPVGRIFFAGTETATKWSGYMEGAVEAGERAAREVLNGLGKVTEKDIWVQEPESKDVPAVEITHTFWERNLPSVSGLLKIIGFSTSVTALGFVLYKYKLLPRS

[3] = species: Homo sapiens; test: Selectivity index, ratio of IC50 for human MAO-B to IC50 for human MAO-A
[4] = target: T2, Amine oxidase [flavin-containing] A; test: Inhibition of human MAO-A using tyramine hydrochloride as substrate after 30 mins by Amplex Red reagent based horseradish peroxidase enzyme-coupled fluorescence assay
[5] = tested on: Salmonella typhimurium; test: Genotoxicity in Salmonella typhimurium TA98 assessed as increase in revertant colonies at 5 mg/ml in absence of Sprague-Dawley rat liver S9 fraction by Ames test relative to basal level; format: toxicity, organism-based; details: salmonella enterica subsp. enterica serovar typhimurium
[6] = tested on: Salmonella typhimurium; test: Genotoxicity in Salmonella typhimurium TA100 assessed as increase in revertant colonies at 0.625 mg/ml in presence of Sprague-Dawley rat liver S9 fraction by Ames test relative to basal level; format: toxicity, organism-based; details: salmonella enterica subsp. enterica serovar typhimurium
[7] = tested on: Salmonella typhimurium; test: Genotoxicity in Salmonella typhimurium TA98 assessed as increase in revertant colonies at 0.3125 mg/ml in absence of Sprague-Dawley rat liver S9 fraction by Ames test relative to basal level; format: toxicity, organism-based; details: salmonella enterica subsp. enterica serovar typhimurium
[8] = tested on: Salmonella typhimurium; test: Genotoxicity in Salmonella typhimurium TA100 assessed as increase in revertant colonies at 5 mg/ml in presence of Sprague-Dawley rat liver S9 fraction by Ames test relative to basal level; format: toxicity, organism-based; details: salmonella enterica subsp. enterica serovar typhimurium
[9] = tested on: NIH3T3; test: Cytotoxicity against mouse NIH/3T3 cells by MTT assay; format: cell-based
[10] = tested on: Salmonella typhimurium; test: Genotoxicity in Salmonella typhimurium TA98 assessed as increase in revertant colonies at 0.156 mg/ml in presence of Sprague-Dawley rat liver S9 fraction by Ames test relative to basal level; format: toxicity, organism-based; details: salmonella enterica subsp. enterica serovar typhimurium
[11] = tested on: Salmonella typhimurium; test: Genotoxicity in Salmonella typhimurium TA100 assessed as increase in revertant colonies at 0.3125 mg/ml in presence of Sprague-Dawley rat liver S9 fraction by Ames test relative to basal level; format: toxicity, organism-based; details: salmonella enterica subsp. enterica serovar typhimurium
[12] = tested on: Salmonella typhimurium; test: Genotoxicity in Salmonella typhimurium TA98 assessed as increase in revertant colonies at 2.5 mg/ml in absence of Sprague-Dawley rat liver S9 fraction by Ames test relative to basal level; format: toxicity, organism-based; details: salmonella enterica subsp. enterica serovar typhimurium
[13] = tested on: Salmonella typhimurium; test: Genotoxicity in Salmonella typhimurium TA100 assessed as increase in revertant colonies at 0.3125 mg/ml in absence of Sprague-Dawley rat liver S9 fraction by Ames test relative to basal level; format: toxicity, organism-based; details: salmonella enterica subsp. enterica serovar typhimurium
[14] = tested on: Salmonella typhimurium; test: Genotoxicity in Salmonella typhimurium TA98 assessed as increase in revertant colonies at 2.5 mg/ml in presence of Sprague-Dawley rat liver S9 fraction by Ames test relative to basal level; format: toxicity, organism-based; details: salmonella enterica subsp. enterica serovar typhimurium
[15] = tested on: Salmonella typhimurium; test: Genotoxicity in Salmonella typhimurium TA100 assessed as increase in revertant colonies at 0.156 mg/ml in absence of Sprague-Dawley rat liver S9 fraction by Ames test relative to basal level; format: toxicity, organism-based; details: salmonella enterica subsp. enterica serovar typhimurium
[16] = tested on: Salmonella typhimurium; test: Genotoxicity in Salmonella typhimurium TA98 assessed as increase in revertant colonies at 0.3125 mg/ml in presence of Sprague-Dawley rat liver S9 fraction by Ames test relative to basal level; format: toxicity, organism-based; details: salmonella enterica subsp. enterica serovar typhimurium
[17] = tested on: Salmonella typhimurium; test: Genotoxicity in Salmonella typhimurium TA98 assessed as increase in revertant colonies at 0.625 mg/ml in presence of Sprague-Dawley rat liver S9 fraction by Ames test relative to basal level; format: toxicity, organism-based; details: salmonella enterica subsp. enterica serovar typhimurium
[18] = tested on: Salmonella typhimurium; test: Genotoxicity in Salmonella typhimurium TA100 assessed as increase in revertant colonies at 2.5 mg/ml in absence of Sprague-Dawley rat liver S9 fraction by Ames test relative to basal level; format: toxicity, organism-based; details: salmonella enterica subsp. enterica serovar typhimurium
[19] = tested on: Salmonella typhimurium; test: Genotoxicity in Salmonella typhimurium TA98 assessed as increase in revertant colonies at 5 mg/ml in presence of Sprague-Dawley rat liver S9 fraction by Ames test relative to basal level; format: toxicity, organism-based; details: salmonella enterica subsp. enterica serovar typhimurium
[20] = tested on: Salmonella typhimurium; test: Genotoxicity in Salmonella typhimurium TA100 assessed as increase in revertant colonies at 0.156 mg/ml in presence of Sprague-Dawley rat liver S9 fraction by Ames test relative to basal level; format: toxicity, organism-based; details: salmonella enterica subsp. enterica serovar typhimurium
[21] = tested on: Salmonella typhimurium; test: Genotoxicity in Salmonella typhimurium TA100 assessed as increase in revertant colonies at 1.25 mg/ml in absence of Sprague-Dawley rat liver S9 fraction by Ames test relative to basal level; format: toxicity, organism-based; details: salmonella enterica subsp. enterica serovar typhimurium
[22] = tested on: Salmonella typhimurium; test: Genotoxicity in Salmonella typhimurium TA98 assessed as increase in revertant colonies at 0.625 mg/ml in absence of Sprague-Dawley rat liver S9 fraction by Ames test relative to basal level; format: toxicity, organism-based; details: salmonella enterica subsp. enterica serovar typhimurium
[23] = tested on: Salmonella typhimurium; test: Genotoxicity in Salmonella typhimurium TA98 assessed as increase in revertant colonies at 1.25 mg/ml in absence of Sprague-Dawley rat liver S9 fraction by Ames test relative to basal level; format: toxicity, organism-based; details: salmonella enterica subsp. enterica serovar typhimurium
[24] = tested on: Salmonella typhimurium; test: Genotoxicity in Salmonella typhimurium TA100 assessed as increase in revertant colonies at 2.5 mg/ml in presence of Sprague-Dawley rat liver S9 fraction by Ames test relative to basal level; format: toxicity, organism-based; details: salmonella enterica subsp. enterica serovar typhimurium
[25] = target: T1, Amine oxidase [flavin-containing] B; test: Inhibition of human MAO-B at 10^-4 to 10^-3 M using tyramine hydrochloride as substrate after 30 mins by Amplex Red reagent based horseradish peroxidase enzyme-coupled fluorescence assay relative to control; details: 0.5 h
[26] = tested on: Salmonella typhimurium; test: Genotoxicity in Salmonella typhimurium TA100 assessed as increase in revertant colonies at 1.25 mg/ml in presence of Sprague-Dawley rat liver S9 fraction by Ames test relative to basal level; format: toxicity, organism-based; details: salmonella enterica subsp. enterica serovar typhimurium
[27] = tested on: Salmonella typhimurium; test: Genotoxicity in Salmonella typhimurium TA100 assessed as increase in revertant colonies at 0.625 mg/ml in absence of Sprague-Dawley rat liver S9 fraction by Ames test relative to basal level; format: toxicity, organism-based; details: salmonella enterica subsp. enterica serovar typhimurium
[28] = tested on: Salmonella typhimurium; test: Genotoxicity in Salmonella typhimurium TA98 assessed as increase in revertant colonies at 0.156 mg/ml in absence of Sprague-Dawley rat liver S9 fraction by Ames test relative to basal level; format: toxicity, organism-based; details: salmonella enterica subsp. enterica serovar typhimurium
[29] = target: T2, Amine oxidase [flavin-containing] A; test: Reversible-competitive inhibition of human MAO-A using varying levels of tyramine as substrate after 30 mins by Lineweaver-Burk plot
[30] = tested on: Salmonella typhimurium; test: Genotoxicity in Salmonella typhimurium TA100 assessed as increase in revertant colonies at 5 mg/ml in absence of Sprague-Dawley rat liver S9 fraction by Ames test relative to basal level; format: toxicity, organism-based; details: salmonella enterica subsp. enterica serovar typhimurium
[31] = tested on: Salmonella typhimurium; test: Genotoxicity in Salmonella typhimurium TA98 assessed as increase in revertant colonies at 1.25 mg/ml in presence of Sprague-Dawley rat liver S9 fraction by Ames test relative to basal level; format: toxicity, organism-based; details: salmonella enterica subsp. enterica serovar typhimurium

SMILES: C(=N\Nc1nc(-c2ccccc2)cs1)/c1ccc(N2CCOCC2)cc1
- IC50 [1]: > 1000 µM
- inhibition (INH) [2]: > 50%
- Ratio IC50 [3]: > 87.8
- IC50 [4]: 11.4 µM

SMILES: Fc1ccc(-c2csc(N/N=C/c3ccc(N4CCOCC4)cc3)n2)c(F)c1
- fold change (FC) [5]: 0.64
- fold change (FC) [6]: 1.4
- fold change (FC) [7]: 0.59
- fold change (FC) [8]: 1.08
- IC50 [9]: > 1000 µM
- fold change (FC) [10]: 1.34
- fold change (FC) [11]: 1.4
- fold change (FC) [12]: 0.3
- fold change (FC) [13]: 1
- IC50 [1]: 17.6 µM
- fold change (FC) [14]: 0.45
- fold change (FC) [15]: 0.61
- fold change (FC) [16]: 1.07
- fold change (FC) [17]: 1.34
- fold change (FC) [18]: 0.22
- fold change (FC) [19]: 0.36
- fold change (FC) [20]: 1.08
- fold change (FC) [21]: 0.45
- fold change (FC) [22]: 0.5
- inhibition (INH) [2]: > 50%
- fold change (FC) [23]: 0.5
- fold change (FC) [24]: 1.14
- Ratio IC50 [3]: 1600
- inhibition (INH) [25]: > 50%
- fold change (FC) [26]: 1.59
- fold change (FC) [27]: 0.61
- fold change (FC) [28]: 0.5
- Ki [29]: 0.0044 µM
- IC50 [4]: 0.011 µM
- fold change (FC) [30]: 0.33
- fold change (FC) [31]: 2.5

SMILES: Clc1ccc(-c2csc(N/N=C/c3ccc(N4CCCC4)cc3)n2)cc1
- IC50 [1]: 761 µM
- inhibition (INH) [2]: > 50%
- Ratio IC50 [3]: 16.9
- inhibition (INH) [25]: > 50%
- IC50 [4]: 45.1 µM

SMILES: Brc1ccc(-c2csc(N/N=C/c3ccc(N4CCOCC4)cc3)n2)cc1
- IC50 [1]: > 100 µM
- inhibition (INH) [2]: > 50%
- Ratio IC50 [3]: > 6.84
- IC50 [4]: 14.6 µM
